Laboratory results as given in PubChem BioAssay (NCI).
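Each compound was tested at five concentrations against cells in 96-well plates for 48 hours. Here, GI50 denotes the concentration required for 50% inhibition of growth. TGI is the concentration that stops growth completely.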

How the values were obtained:
Assay in all cases: NCI-60 cell line screen, 48 h
[1] = test system: T-47D breast
[2] = test system: HS 578T breast
[3] = test system: UO-31 renal
[4] = test system: LOX IMVI melanoma
[5] = test system: SK-MEL-28 melanoma
[6] = test system: KM12 colon
[7] = test system: UACC-257 melanoma
[8] = test system: CAKI-1 renal
[9] = test system: HOP-62 NSCLC
[10] = test system: SF-539 CNS
[11] = test system: HCC-2998 colon
[12] = test system: SN12C renal
[13] = test system: RPMI-8226 leukemia
[14] = test system: MDA-MB-231 breast
[15] = test system: SK-MEL-2 melanoma
[16] = test system: UACC-62 melanoma
[17] = test system: MDA-MB-435
[18] = test system: HCT-116 colon
[19] = test system: MALME-3M melanoma
[20] = test system: CCRF-CEM leukemia
[21] = test system: RXF 393 renal
[22] = test system: U251 CNS
[23] = test system: OVCAR-3 ovarian
[24] = test system: HCT-15 colon
[25] = test system: MOLT-4 leukemia
[26] = test system: BT-549 breast
[27] = test system: A498 renal
[28] = test system: M14 melanoma
[29] = test system: COLO 205 colon
[30] = test system: SR leukemia
[31] = test system: SF-268 CNS
[32] = test system: HL-60(TB) leukemia
[33] = test system: NCI-H460 lung
[34] = test system: OVCAR-5 ovarian
[35] = test system: SNB-75 CNS
[36] = test system: SK-OV-3 ovarian
[37] = test system: SF-295 CNS
[38] = test system: OVCAR-4 ovarian
[39] = test system: OVCAR-8 ovarian
[40] = test system: HT29 colon
[41] = test system: 786-0 renal
[42] = test system: ACHN renal
[43] = test system: NCI-H522 lung
[44] = test system: NCI-H226 lung
[45] = test system: SNB-19 CNS
[46] = test system: NCI/ADR-RES ovarian
[47] = test system: A549 NSCLC
[48] = test system: PC-3 prostate
[49] = test system: SW-620 colon
[50] = test system: EKVX NSCLC
[51] = test system: MCF7 breast
[52] = test system: DU-145 prostate
[53] = test system: IGROV1 ovarian
[54] = test system: NCI-H23 lung
[55] = test system: TK-10 renal
[56] = test system: K-562 leukemia
[57] = test system: HOP-92 NSCLC
[58] = test system: SK-MEL-5 melanoma

## C/C=C(\C)C(=O)O[C@H]1C=CC(=O)O[C@H]1CC[C@H](O)[C@H](C)O
[1]
  GI50: 2340 nM
  TGI: 10.8 µM
[2]
  GI50: 6.8 µM
  TGI: 18.1 µM
[3]
  GI50: 9.06 µM
  TGI: 23.5 µM
[4]
  GI50: 2240 nM
  TGI: 5.66 µM
[5]
  GI50: 2850 nM
  TGI: 8.05 µM
[6]
  GI50: 12.4 µM
  TGI: 29.1 µM
[7]
  GI50: 16.4 µM
  TGI: 34.2 µM
[8]
  GI50: 7.12 µM
  TGI: 13.1 µM
[9]
  GI50: 15.3 µM
  TGI: 29.7 µM
[10]
  GI50: 13.3 µM
  TGI: 27.1 µM
[11]
  GI50: 12.3 µM
  TGI: 26.3 µM
[12]
  GI50: 8.06 µM
  TGI: 25.3 µM
[13]
  GI50: 2220 nM
  TGI: 7.54 µM
[14]
  GI50: 12.8 µM
  TGI: 28.3 µM
[15]
  GI50: 8.41 µM
  TGI: 27.9 µM
[16]
  GI50: 6.42 µM
  TGI: 17.3 µM
[17]
  GI50: 3430 nM
  TGI: 12.7 µM
[18]
  GI50: 1380 nM
  TGI: 2.82 µM
[19]
  GI50: 4.62 µM
  TGI: 16.1 µM
[20]
  TGI: 335 nM
[21]
  GI50: 2 µM
  TGI: 5.4 µM
[22]
  GI50: 4.64 µM
  TGI: 17.4 µM
[23]
  GI50: 3060 nM
  TGI: 8.79 µM
[24]
  GI50: 3410 nM
  TGI: 12.7 µM
[25]
  GI50: 522 nM
  TGI: 5.59 µM
[26]
  GI50: 6.14 µM
  TGI: 19.9 µM
[27]
  GI50: 16.4 µM
  TGI: 30.3 µM
[28]
  GI50: 6.82 µM
  TGI: 21.9 µM
[29]
  GI50: 3220 nM
  TGI: 10.1 µM
[30]
  GI50: 15.1 µM
  TGI: 45.7 µM
[31]
  GI50: 2830 nM
  TGI: 12.3 µM
[32]
  GI50: 469 nM
  TGI: 4.77 µM
[33]
  GI50: 11.6 µM
  TGI: 25.4 µM
[34]
  GI50: 16.9 µM
  TGI: 32.1 µM
[35]
  GI50: 8.98 µM
  TGI: 22.7 µM
[36]
  GI50: 16.2 µM
  TGI: 31 µM
[37]
  GI50: 13 µM
  TGI: 26.5 µM
[38]
  GI50: 6.42 µM
  TGI: 20.7 µM
[39]
  GI50: 12.8 µM
  TGI: 30.7 µM
[40]
  GI50: 2380 nM
  TGI: 6.65 µM
[41]
  GI50: 5.46 µM
  TGI: 12.8 µM
[42]
  GI50: 6.42 µM
  TGI: 19.7 µM
[43]
  GI50: 2050 nM
  TGI: 6.13 µM
[44]
  GI50: 4140 nM
  TGI: 16.6 µM
[45]
  GI50: 12.3 µM
  TGI: 26.4 µM
[46]
  GI50: 15.3 µM
  TGI: 34 µM
[47]
  GI50: 18 µM
  TGI: 36.3 µM
[48]
  GI50: 8.46 µM
  TGI: 22.7 µM
[49]
  GI50: 2640 nM
  TGI: 6.08 µM
[50]
  GI50: 15.8 µM
  TGI: 30.5 µM
[51]
  GI50: 2450 nM
  TGI: 11.3 µM
[52]
  GI50: 13.8 µM
  TGI: 27 µM
[53]
  GI50: 4170 nM
  TGI: 19 µM
[54]
  GI50: 15.7 µM
  TGI: 34.2 µM
[55]
  GI50: 9.78 µM
  TGI: 23.9 µM
[56]
  GI50: 2300 nM
  TGI: 8.72 µM
[57]
  GI50: 6.3 µM
  TGI: 16.1 µM
[58]
  GI50: 5.13 µM
  TGI: 11 µM

## NCCCCCCn1c2c(c3ccccc3c1=O)C(=O)c1ccccc1-2
[1]
  GI50: 1850 nM
  TGI: 5.93 µM
[2]
  GI50: 2.51 µM
  TGI: 11.1 µM
[3]
  GI50: 0.442 µM
  TGI: 1.85 µM
[4]
  GI50: 1120 nM
  TGI: 2.99 µM
[5]
  GI50: 1900 nM
  TGI: 3.76 µM
[6]
  GI50: 1.38 µM
  TGI: 6.9 µM
[7]
  GI50: 2.36 µM
  TGI: 5.8 µM
[8]
  GI50: 1.96 µM
  TGI: 8.25 µM
[9]
  GI50: 1.28 µM
  TGI: 4.5 µM
[10]
  GI50: 1.24 µM
  TGI: 3.59 µM
[11]
  GI50: 2.25 µM
  TGI: 14.3 µM
[12]
  GI50: 1.33 µM
  TGI: 6.09 µM
[13]
  GI50: 1530 nM
  TGI: 6.07 µM
[14]
  GI50: 1.98 µM
  TGI: 5.46 µM
[15]
  GI50: 1.87 µM
  TGI: 3.54 µM
[16]
  GI50: 1.63 µM
  TGI: 3.5 µM
[17]
  GI50: 2050 nM
  TGI: 4.76 µM
[18]
  GI50: 909 nM
  TGI: 6.11 µM
[19]
  GI50: 1.91 µM
  TGI: 4.61 µM
[20]
  GI50: 512 nM
  TGI: 3210 nM
[21]
  GI50: 12 µM
  TGI: 64.8 µM
[22]
  GI50: 1.43 µM
  TGI: 12.3 µM
[23]
  GI50: 1980 nM
  TGI: 6.24 µM
[24]
  GI50: 717 nM
  TGI: 5.86 µM
[25]
  GI50: 237 nM
  TGI: 0.972 µM
[26]
  GI50: 1.8 µM
  TGI: 4.73 µM
[27]
  GI50: 0.675 µM
  TGI: 2.97 µM
[28]
  GI50: 2.28 µM
  TGI: 5 µM
[29]
  GI50: 1600 nM
  TGI: 13.7 µM
[30]
  GI50: 0.349 µM
  TGI: 2.09 µM
[31]
  GI50: 2300 nM
  TGI: 16.2 µM
[32]
  GI50: 266 nM
  TGI: 1.42 µM
[33]
  GI50: 0.415 µM
  TGI: 11.3 µM
[34]
  GI50: 1.88 µM
  TGI: 4.6 µM
[35]
  GI50: 1.75 µM
  TGI: 7.72 µM
[36]
  GI50: 0.72 µM
  TGI: 7.42 µM
[37]
  GI50: 1.47 µM
  TGI: 5.56 µM
[38]
  GI50: 2.19 µM
  TGI: 7.24 µM
[39]
  GI50: 1.54 µM
  TGI: 11.3 µM
[40]
  GI50: 1200 nM
  TGI: 4.42 µM
[41]
  GI50: 0.603 µM
  TGI: > 100 µM
[42]
  GI50: 0.526 µM
  TGI: 2.71 µM
[43]
  GI50: 1170 nM
  TGI: 2.88 µM
[44]
  GI50: 1080 nM
  TGI: 3.07 µM
[45]
  GI50: 1.19 µM
  TGI: 10.1 µM
[46]
  GI50: 2.46 µM
  TGI: 11.7 µM
[47]
  GI50: 1.22 µM
  TGI: 25.8 µM
[48]
  GI50: 2.12 µM
  TGI: 11.8 µM
[49]
  GI50: 613 nM
  TGI: 3.16 µM
[50]
  GI50: 10.3 µM
  TGI: 28.8 µM
[51]
  GI50: 744 nM
  TGI: 3.61 µM
[52]
  GI50: 0.608 µM
  TGI: > 100 µM
[53]
  GI50: 1070 nM
  TGI: 4.31 µM
[54]
  GI50: 1.5 µM
  TGI: 6.54 µM
[55]
  GI50: 1.65 µM
  TGI: 3.82 µM
[56]
  GI50: 705 nM
  TGI: 5.35 µM
[57]
  GI50: 2.57 µM
  TGI: 16 µM
[58]
  GI50: 1.3 µM
  TGI: 2.75 µM
